Laboratory results published in the supplement of paper PMC10307832.

Compound: CN(C)C/C=C/C(=O)Nc1cc2c(Nc3ccc(F)c(Cl)c3)ncnc2cc1O[C@H]1CCOC1 [Afatinib] + COc1cc2c(Oc3ccc(NC(=O)C4(C(=O)Nc5ccc(F)cc5)CC4)cc3F)ccnc2cc1OCCCN1CCOCC1 [Foretinib] (partner 0.25 µM)
Assay: relative viability (nuclei count vs DMSO), 5 days (fraction); higher = more cells survive
Procedure, shortened: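 After 5 days of treatment, lung cancer cells in 1536-well plates were fixed and stained in a single step (final 0.05% Triton X-100, 1% formaldehyde, 1 ug/ml Hoechst) and their nuclei counted on 4× images. Treatment had been applied by pin tool the day after seeding as one drug alone or as a fixed anchor-drug dose with five library-drug doses (not always all listed) in √10 steps. Relative viability is the nuclei count of treated wells divided by that of vehicle wells, and values are medians of duplicate plates.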

Cell Line | relative viability (first compound 0.005 µM) | relative viability (first compound 0.01581 µM) | relative viability (first compound 0.05 µM) | relative viability (first compound 0.1581 µM) | relative viability (first compound 0.5 µM)
LCLC-97TM1 | 1 | 0.906 | 0.894 | 0.808 | 0.907
HARA | 0.825 | 0.451 | 0.401 | 0.377 | 0.403
HCC-78 | 0.549 | 0.568 | 0.405 | 0.324 | 0.386
NCI-H1666 | 0.932 | 0.812 | 0.761 | 0.725 | 0.774
NCI-H2347 | 1.08 | 0.842 | 1.03 | 0.899 | 0.518
NCI-H838 | 1.07 | 1.01 | 1.11 | 1.02 | 1.26
NCI-H2023 | 0.811 | 0.892 | 0.42 | 0.333 | 0.562
201T | 1.04 | 1.05 | 1.01 | 0.949 | 1.17
NCI-H1915 | 1.19 | 1.05 | 1.11 | 1.02 | 0.974
NCI-H2009 | 1.22 | 1.19 | 1.31 | 1.21 | 1.33
BEN | 0.719 | 0.63 | 0.651 | 0.634 | 0.775
PC-14 | 0.45 | 0.149 | 0.184 | 0.179 | 0.183
SK-MES-1 | 0.905 | 0.552 | 0.596 | 0.372 | 0.448
NCI-H727 | 0.82 | 0.588 | 0.762 | 0.709 | 0.752
NCI-H1355 | 0.947 | 0.636 | 0.824 | 0.773 | 0.751
NCI-H1975 | 0.952 | 0.907 | 0.872 | 0.353 | 0.303
LK-2 | 0.994 | 1.13 | 0.851 | 1.06 | 0.997
NCI-H661 | 1.06 | 0.874 | 0.738 | 0.75 | 0.625
HCC-366 | 0.916 | 0.949 | 0.868 | 0.937 | 0.914

Cell Line | relative viability (first compound 0.005 µM) | relative viability (first compound 0.01581 µM) | relative viability (first compound 0.05 µM) | relative viability (first compound 0.1581 µM) | relative viability (first compound 0.5 µM)
HOP-62 | 1.18 | 1.23 | 1.18 | 1.14 | 1.1
NCI-H1944 | 0.797 | 0.899 | 0.668 | 0.535 | 0.657
SW 1573 | 0.999 | 0.924 | 0.898 | 0.861 | 0.877
LU99A | 0.957 | 0.818 | 0.831 | 0.77 | 0.785
NCI-H647 | 1.21 | 1.1 | 1.21 | 1.11 | 1.14
A-427 | 0.85 | 1.05 | 1.11 | 0.947 | 1.02
COR-L 105 | 0.385 | 0.448 | 0.37 | 0.287 | 0.318
NCI-H441 | 1.22 | 0.837 | 0.987 | 0.742 | 0.75
NCI-H2126 | 1.03 | 1.19 | 1.08 | 0.729 | 0.853
EBC-1 | 0.105 | 0.0995 | 0.0925 | 0.109 | 0.0966
NCI-H460 | 0.987 | 0.895 | 0.943 | 1.07 | 0.978
SK-LU-1 | 0.856 | 0.833 | 0.878 | 0.764 | 0.845
NCI-H322M | 0.765 | 0.566 | 0.493 | 0.535 | 0.449
EKVX | 0.838 | 0.428 | 0.453 | 0.129 | 0.318
NCI-H1734 | 0.926 | 0.785 | 0.83 | 0.73 | 0.924
SW 900 | 1.06 | 1.18 | 0.873 | 0.725 | 0.679
ABC-1 | 1.25 | 1.01 | 1.08 | 0.743 | 1.21
NCI-H520 | 0.83 | 0.656 | 0.698 | 0.812 | 0.744
